Measurements published in patent US5486595A, “Tumor necrosis factor inhibitors” (Centecor, Inc., priority 1994, dated 1996).
Where a SMILES comes first, the peptide text is derived from it.

What follows are compounds tested against T1, human TNFα (Homo sapiens, UniProt P01375) (assay: p55 Receptor/IgG Fusion Protein Binding Assay (inhibition of TNFα capture by p55-Ig coated plate)). Conditions: peptide 1 mM; TNFα 25 ng/ml.
T1 construct: purchased Biosource, Camarillo, Calif
Protocol: This assay was designed to identify peptides which bind to human TNFα and thereby prevent the capture of the TNFα by a microtiter plate coated with p55-Ig fusion protein. A constant concentration of human TNFα is preincubated with the test peptide and then incubated on the p55-Ig coated microtiter wells. Bound TNFα is detected using a specific antisera and an alkaline phosphatase-conjugated probe.
A 96-well, U-bottom polyvinylchloride microtiter plate was coated with 50 μl/well of p55-Ig fusion protein at 5 μg/ml in 0.01M sodium phosphate, 0.15M sodium chloride (PBS) by incubation overnight at 4° C. or 2 hours at 37° C. The fusion protein, which consists of a p55 TNF receptor protein portion and an IgG portion, can be produced as disclosed in U.S. application Ser. No. 08/010,406 filed Jan. 29, 1993 which is incorporated herein by reference. The plate was washed three times with 0.05% Tween-20 in PBS, then blocked, by adding 150 μl/well of assay buffer (10 mM N-2-hydroxyethylpiperazine-N'-[…] (HEPES) pH 7.2, containing 0.1% porcine gelatin, 0.1% Tween-80, and 0.01% sodium azide) and continuing incubation for 1 hour at 37° C. or at 4° C. for 1-7 days.
Lyophilized peptides to be tested were weighed in tared 12×75 mm polystyrene tubes and reconstituted to a concentration of 1.2 mM with assay buffer. Each suspension was sonicated in a water bath for 1-5 minutes and vortexed 15-30 seconds to disperse large particles. Serial dilutions of each peptide suspension were prepared using assay buffer in a 96-well polystyrene microtiter plate. Additional wells received Fab fragment of the mouse/human monoclonal anti-human TNFα antibody cA2 (positive control) or assay buffer (negative control). […] The polystyrene dilution plate was then sealed and incubated 1 hour at room temperature on an orbital mixer set at moderate speed.
Following the sample preincubation, blocker was discarded from the p55-Ig coated plate and blotted dry. Aliquots (50 μl) of each peptide or control were transferred into duplicate wells on the p55-Ig coated plate which was then sealed and incubated i hour at 37° C. Duplicate wells containing only assay buffer were included as a plate blank. After incubation the p55-Ig plate was washed three times with 0.05% Tween-20 in PBS.
To detect TNFα captured by the p55-Ig plate, all wells were incubated in succession with polyclonal rabbit anti-human TNFα (Genzyme, Boston, Mass.; 1:500 in assay buffer, 50 μl/well), biotinylated goat anti-rabbit Ig (H&L) (Vector Laboratories, Burlingame, Calif.; 1 μg/ml in assay buffer, 50 μl/well) and streptavidin-alkaline phosphatase conjugate (Pierce, Rockford, Ill.; 1 μg/ml in assay buffer, 50 μl/well). All incubations were for 1 hour at 37° C. and after each incubation the plate was washed three times with 0.05% Tween-20 in PBS. Fifty microliters of alkaline phosphatase substrate solution (alkaline buffer (Sigma, St. Louis, Mo.) diluted 1:500 in deionized water plus one 5 mg tablet of p-nitrophenyl phosphate (Sigma, St. Louis, Mo.) per 5 ml of diluted buffer) was added to all wells and incubation continued for 20 minutes at room temperature. Color development was stopped by adding to all wells 50 μl of 3N sodium hydroxide. The optical density (OD) at 405 nm was measured on a microtiter plate reader (Molecular Devices Vmax plate reader), with the plate blank wells subtracted as background. The activity of each peptide was then expressed as the percent inhibition of TNFα capture by the p55-Ig plate, relative to the amount of TNFα captured in wells containing only assay buffer (negative control), as follows: % inhibition=100-((mean OD peptide/mean OD negative control)×100).
The inhibition of binding of TNFα to p55TNFr-IgG chimeric construct was performed as described above using several embodiments of the invention. The peptides were tested at a concentration of 1 mM.

T1 sequence (P01375 77-233 limits assumed): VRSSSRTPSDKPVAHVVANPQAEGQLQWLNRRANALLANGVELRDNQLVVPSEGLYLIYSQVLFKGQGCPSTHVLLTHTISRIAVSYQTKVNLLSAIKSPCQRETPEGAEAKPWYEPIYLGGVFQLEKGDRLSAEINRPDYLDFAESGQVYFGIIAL

Q: For “SEQ ID NO:35: peptide of the invention that inhibits TNFα; sequence not printed (VADSAEDSTYTQLWN)”, which “inhibition of binding of TNFα to p55TNFr-IgG chimeric construct” value (“inhibition of binding of TNFα” below) is on record?
A: The value was 72%.

Q: With “SEQ ID NO:51: peptide of the invention that inhibits TNFα; sequence not printed (PGNASRDAVATSTSP)” as the compound, how does the “inhibition of binding of TNFα” value read?
A: Its value is 68%.

Q: With “SEQ ID NO:34: peptide of the invention that inhibits TNFα; sequence not printed (SDTVADSAEDSTYTQ)” as the compound, how does the “inhibition of binding of TNFα” value read?
A: Its value is 65%.

Q: With “SEQ ID NO:37: peptide of the invention that inhibits TNFα; sequence not printed (DSTYTQLWNWVPEAL)” as the compound, how does the “inhibition of binding of TNFα” value read?
A: Its value is 77%.

Q: Which “inhibition of binding of TNFα” value does the source give for “SEQ ID NO:38: peptide of the invention that inhibits TNFα; sequence not printed (YTQLWNWVPEALSAG)” here?
A: Its value is 64%.

Same assay, conditions: peptide 1 mM; TNFα 25 ng/ml; read-out: inhibition of binding of TNFα to p55TNFr-IgG chimeric construct

Q: C[C@H](NC(=O)[C@H](CCC(=O)O)NC(=O)[C@H](CCCNC(=N)N)NC(=O)[C@H](C)NC(=O)[C@H](CC(=O)O)NC(=O)[C@@H](NC(=O)[C@H](CC(=O)O)NC(=O)[C@H](CCC(N)=O)NC(=O)CNC(=O)[C@@H]1CCCN1C(=O)CN)[C@@H](C)O)C(=O)N[C@@H](CCC(=O)O)C(=O)N[C@@H](CO)C(=O)NCC(=O)N[C@@H](CO)C(N)=O [SEQ ID NO:3, Glycyl-prolyl-glycyl-glutaminyl-aspartyl-threonyl-aspartyl-alanyl-arginyl-glutamyl-alanyl-glutamyl-seryl-glycyl-serine Amide] (H-GPGQDTDAREAESGS-NH2) was tested. Which inhibition at 1000 µM did it give?
A: The inhibition at 1000 µM was 53%.

Q: CC(C)[C@H](NC(=O)[C@@H](NC(=O)[C@H](CC(=O)O)NC(=O)[C@H](CO)NC(=O)[C@@H](NC(=O)[C@H](CCCCN)NC(=O)[C@@H](N)[C@@H](C)O)[C@@H](C)O)[C@@H](C)O)C(=O)N[C@@H](C)C(=O)N[C@@H](CC(=O)O)C(=O)N[C@@H](CO)C(=O)N[C@@H](C)C(=O)N[C@@H](CCC(=O)O)C(=O)N[C@@H](CC(=O)O)C(=O)N[C@@H](CO)C(=O)N[C@H](C(N)=O)[C@@H](C)O [SEQ ID NO:33] (H-TKTSDTVADSAEDST-NH2) was tested. Which inhibition at 1000 µM did it give?
A: Its inhibition at 1000 µM is 67%.

Q: CC(C)C[C@H](NC(=O)[C@H](CCCNC(=N)N)NC(=O)[C@H](C)NC(=O)[C@@H](NC(=O)[C@H](CO)NC(=O)CNC(=O)[C@@H]1CCCN1C(=O)[C@H](CCC(=O)O)NC(=O)[C@@H]1CCCN1C(=O)[C@H](C)NC(=O)[C@@H](N)Cc1ccc(O)cc1)[C@@H](C)O)C(=O)N[C@@H](CCCNC(=N)N)C(=O)N[C@@H](CCC(=O)O)C(=O)N[C@@H](Cc1ccc(O)cc1)C(=O)N[C@@H](Cc1ccc(O)cc1)C(N)=O [SEQ ID NO:26] (H-YAPEPGSTARLREYY-NH2) was tested. Which inhibition at 1000 µM did it give?
A: Its inhibition at 1000 µM is 71%.

Q: Which inhibition at 1000 µM does the source give for CC[C@H](C)[C@H](NC(=O)[C@H](CCC(N)=O)NC(=O)[C@@H]1CCCN1)C(=O)N[C@@H](CCC(=O)O)C(=O)N[C@@H](CC(N)=O)C(=O)N[C@H](C(=O)N[C@@H](CCCCN)C(=O)NCC(=O)N[C@H](C(=O)N[C@@H](CCC(=O)O)C(=O)N[C@@H](CC(N)=O)C(=O)N[C@@H](CO)C(=O)NCC(=O)N[C@H](C(=O)N[C@H](C(N)=O)[C@@H](C)O)[C@@H](C)O)[C@@H](C)O)C(C)C [SEQ ID NO:23, Prolyl-glutaminyl-isoleucyl-glutamyl-asparaginyl-valyl-lysyl-glycyl-threonyl-glutamyl-asparaginyl-seryl-glycyl-threonyl-threonine Amide] (H-PQIENVKGTENSGTT-NH2) here?
A: Its inhibition at 1000 µM is 52%.

Q: How did the inhibition at 1000 µM turn out when CC(=O)N[C@@H](C)C(=O)N[C@@H](Cc1ccccc1)C(=O)N[C@@H](CC(N)=O)C(=O)N[C@@H](C)C(=O)N[C@@H](CO)C(=O)N[C@@H](CC(C)C)C(=O)N[C@@H](C)C(=O)N[C@@H](CC(C)C)C(=O)N[C@@H](CC(N)=O)C(=O)NCC(=O)N[C@H](C(=O)N[C@H](C(=O)N[C@@H](Cc1c[nH]cn1)C(=O)N[C@@H](CC(C)C)C(=O)N[C@@H](CO)C(N)=O)C(C)C)[C@@H](C)O [SEQ ID NO:13, Acetyl-alanyl-phenylalanyl-asparaginyl-alanyl-seryl-leucyl-alanyl-leucyl-asparaginyl-glycyl-threonyl-valyl-histidyl-leucyl-serine Amide] (Ac-AFNASLALNGTVHLS-NH2) was run?
A: Its inhibition at 1000 µM is 34%.

Q: CC(C)C[C@H](NC(=O)[C@H](Cc1ccccc1)NC(=O)[C@H](Cc1ccccc1)NC(=O)CNC(=O)[C@H](C)NC(=O)[C@H](Cc1c[nH]cn1)NC(=O)[C@H](C)NC(=O)[C@@H](NC(=O)[C@H](C)NC(=O)[C@@H](NC(=O)[C@@H](NC(=O)[C@H](CC(N)=O)NC(=O)[C@H](CCC(N)=O)NC(=O)[C@@H](N)CCCCN)[C@@H](C)O)C(C)C)[C@@H](C)O)C(=O)N[C@@H](CCCNC(=N)N)C(N)=O [SEQ ID NO:16, Lysyl-glutaminyl-asparaginyl-threonyl-valyl-alanyl-threonyl-alanyl-histidyl-alanyl-glycyl-phenylalanyl-phenylalanyl-leucyl-arginine Amide] (H-KQNTVATAHAGFFLR-NH2) was tested. Which inhibition at 1000 µM did it give?
A: Its inhibition at 1000 µM is 48%.

Q: How did the inhibition at 1000 µM turn out when CC(C)C[C@H](NC(=O)[C@H](Cc1ccccc1)NC(=O)[C@H](Cc1ccccc1)NC(=O)CNC(=O)[C@H](C)NC(=O)[C@H](Cc1c[nH]cn1)NC(=O)[C@H](C)NC(=O)[C@@H](NC(=O)[C@H](C)NC(=O)[C@@H](NC(=O)[C@@H](N)[C@@H](C)O)C(C)C)[C@@H](C)O)C(=O)N[C@@H](CCCNC(=N)N)C(=O)N[C@@H](CCC(=O)O)C(=O)N[C@@H](CC(N)=O)C(=O)N[C@@H](CCC(=O)O)C(N)=O [SEQ ID NO:17] (H-TVATAHAGFFLRENE-NH2) was run?
A: Its inhibition at 1000 µM is 59%.

Q: How did the inhibition at 1000 µM turn out when CC(C)C[C@H](NC(=O)[C@H](CCCNC(=N)N)NC(=O)[C@H](C)NC(=O)[C@@H](NC(=O)[C@H](CO)NC(=O)CNC(=O)[C@@H]1CCCN1C(=O)[C@H](CCC(=O)O)NC(=O)[C@@H]1CCCN1C(=O)[C@H](C)NC(=O)[C@H](Cc1ccc(O)cc1)NC(=O)[C@@H]1CCCN1C(=O)[C@@H](NC(=O)[C@@H](N)Cc1ccccc1)[C@@H](C)O)[C@@H](C)O)C(=O)N[C@@H](CCCNC(=N)N)C(N)=O [SEQ ID NO:25] (H-FTPYAPEPGSTARLR-NH2) was run?
A: The inhibition at 1000 µM was 69%.

Q: With C[C@H](NC(=O)[C@@H](NC(=O)[C@H](Cc1ccccc1)NC(=O)[C@H](CO)NC(=O)CNC(=O)[C@H](CO)NC(=O)[C@H](CCC(=O)O)NC(=O)[C@H](C)NC(=O)[C@H](CCC(=O)O)NC(=O)[C@H](CCCNC(=N)N)NC(=O)[C@H](C)NC(=O)[C@H](CC(=O)O)NC(=O)[C@@H](NC(=O)[C@H](CC(=O)O)NC(=O)[C@@H](N)CCC(N)=O)[C@@H](C)O)[C@@H](C)O)C(N)=O [SEQ ID NO:4, Glutaminyl-aspartyl-threonyl-aspartyl-alanyl-arginyl-glutamyl-alanyl-glutamyl-seryl-glycyl-seryl-phenylalanyl-threonyl-alanine Amide] (H-QDTDAREAESGSFTA-NH2) as the compound, how does the inhibition at 1000 µM read?
A: Its inhibition at 1000 µM is 53%.

Q: Which inhibition at 1000 µM does the source give for CC(C)C[C@H](NC(=O)[C@H](Cc1ccccc1)NC(=O)[C@H](Cc1ccccc1)NC(=O)CNC(=O)[C@H](C)NC(=O)[C@H](Cc1c[nH]cn1)NC(=O)[C@H](C)NC(=O)[C@@H](N)[C@@H](C)O)C(=O)N[C@@H](CCCNC(=N)N)C(=O)N[C@@H](CCC(=O)O)C(=O)N[C@@H](CC(N)=O)C(=O)N[C@@H](CCC(=O)O)C(=O)N[C@@H](C)C(=O)N[C@H](C(=O)N[C@@H](CO)C(N)=O)C(C)C [SEQ ID NO:18] (H-TAHAGFFLRENEAVS-NH2) here?
A: Its inhibition at 1000 µM is 68%.
